Read-outs that look alike come from different tables or passages of the source.
Columns and labels:
[1] = cited from earlier work; for metabolism and defluorination relative to the undeuterated compound: U.S. Patent 4,154,971, U.S. Patent 4,153,636
[2] = cited from earlier work
[3] = test system: mice; conditions: cited from earlier work
[4] = In vivo metabolism: plasma fluoride after 30 minute inhalation exposure; set-up: species or system Male Sprague-Dawley rats; conditions: 30 minute exposure, 3% anesthetic
From the text: Untreated rats or rats treated with isoniazid or phenobarbital were exposed to D2-sevoflurane, sevoflurane, or enflurane to determine the relative rates of fluoride production in vivo.
(§1) The animals were exposed in a 3.8 L plastic exposure chamber with an atmosphere of 100% oxygen. Male Sprague-Dawley rats (200-220g, 4 per group) were placed in the chamber and the chamber was flushed with oxygen and sealed. Anesthetic was introduced into the chamber in liquid form via an injection port. Quantities were introduced to give initial concentrations of 3% anesthetic (enflurane, 464 µl; sevoflurane and D2-sevoflurane, 524 µl). The rats became anesthetized within 4-6 minutes after introduction of each anesthetic. Oxygen and carbon dioxide were monitored periodically during the exposure period with an Ohmeda 6000 multi-gas monitor.
Following a 30 minute exposure period, the chamber was flushed with 100% oxygen for 5 minutes and the animals rapidly awakened. The rats were immediately removed and injected i.p. with 80 mg/kg secobarbital. While anesthetized 3 to 4 ml of blood were withdrawn by cardiac puncture within 15 minutes of termination of anesthetic exposure (within 10 minutes of removal from the chamber). Plasma was prepared and fluoride analyzed as described above.

[5] = test system: rat liver microsomes; assay type: in vitro ADME, male Sprague-Dawley rats; conditions: for defluorination by rat liver microsomes, nmol F^- /mg protein/30 min ± S.E.: 1 µl anesthetic per incubation, mean and standard error of triplicate determinations; for percent decline from sevoflurane values (degree of inhibited metabolism): following correction for background (0.43)
Experimental: The metabolism of D2-sevoflurane is expected to liberate one fluoride ion for each molecule metabolized by cytochrome P450 since the metabolism of sevoflurane liberates fluoride and hexafluoroisopropanol. To determine the metabolism of D2-sevoflurane relative to sevoflurane and enflurane, these anesthetics were incubated with hepatic microsomes from untreated male Sprague-Dawley rats (200-230g), or rats treated with isoniazid (80mg/kg, i.p. for 5 days), or phenobarbital (0.2% in the drinking water for 4 days). Isoniazid induces the cytochrome P450 isozyme P450 2E1 which is thought to metabolize the volatile anesthetics, and phenobarbital induces several forms also shown to play a role in anesthetic metabolism in the rat.
Each incubation vial (6 ml plastic vial) contained 3 ml of 5 mg/ml microsomal protein in a 0.1 M sodium phosphate buffer, pH 7.4. An NADPH generating system was added to cytochrome P450 activity, and the NADPH generating system was omitted from control incubations. […] Reactions were stopped by placing the vials on ice. Fluoride was assayed in the microsomal mixtures using fluoride ion-specific electrodes (Fisher Scientific) and a 720A Orion pH/ISE meter. Following incubation microsomes were mixed with an equal volume of TISABII buffer for fluoride analysis. Fluoride in each sample was determined from standard curves constructed using fluoride standards (10^-7 to 10^-3 M NaF) prepared from a commercially available standard solution (10^-1 M NaF).

[6] = Breakdown by soda lime in an anesthesia circuit (gas chromatography); assay type: physicochemical; conditions: for production of volatile degradation by-products: soda lime temperature maintained in the range of 4°C to 27°C
Experimental: An anesthesia circuit containing fresh soda lime (1.5 kg) was set up with an anesthesia machine (Foregger F 500). […] The gases were re-circulated at a total circuit flow rate of 1.5 liters per minute (a relatively low clinical total flow rate) in a closed system with a respirator. Carbon dioxide was added to the circuit at a constant rate of 200 ml per minute. This set up the conditions for "worst case" breakdown of sevoflurane by soda lime.
Experiments were conducted at exothermic temperature versus with the soda lime canister immersed in an ice bath. […] Products were continually detected for the remainder of the experiments (up to eight hours) by gas chromatography.

[7] = Incubations with soda lime in static systems; assay type: physicochemical; conditions: for degradation products with soda lime: static system
[8] = test system: Male Sprague-Dawley rats; assay: Induction of anesthesia in exposure chamber at 3% anesthetic; assay type: in vivo; conditions: initial concentration 3% anesthetic in 100% oxygen, 3.8 L chamber
Experimental: as §1

[9] = cited from earlier work; remark: listed apart in the source
[10] = Animal Treatment: Phenobarbital

SMILES: [2H]C(F)(Cl)C(F)(F)OC(F)F (stereo not drawn) [1,1,2-trifluoro-2-chloro-2-deuteroethyl-difluoromethyl ether]
- metabolism and defluorination relative to the undeuterated compound [1]: slower metabolism and thus slower defluorination

SMILES: [2H]C(F)(Br)C(F)(F)OC(F)F (stereo not drawn) [1,1,2-trifluroro-2-bromo-2-deuteroethyl difluoromethyl ether]
- metabolism and defluorination relative to the undeuterated compound [1]: slower metabolism and thus slower defluorination

SMILES: [2H]C(Cl)(Cl)C(F)(F)OC [1,1-difluoro-2,2-dichloro-2-deuteroethyl methyl ether]
- metabolism and defluorination relative to the undeuterated compound [1]: more readily metabolized into inorganic fluoride than the undeuterated compound
- metabolism and defluorination relative to the undeuterated compound ([1]; listed as 1,1 difluoro-2-2-dichloro-2-deuteroethyl methyl ether): increase inorganic fluoride release

SMILES: [2H]C(Cl)(Cl)C(F)(F)OC(F)F [1,1-difluoro-2-deutero-2,2-dichloroethyl difluoromethyl ether]
- metabolism and defluorination relative to the undeuterated compound [1]: slower metabolism and thus slower defluorination

SMILES: [2H]C([2H])([2H])OC(F)(F)C(Cl)Cl [2,2-dichloro-1,1-difluoro-1-methoxy-D3-ethane]
- metabolism and defluorination relative to the undeuterated compound [1]: decreased metabolism

SMILES: FC(F)OC(F)(C(F)F)C(F)F [(CHF2)2CF-O-CHF2]
- anesthetic properties ([2]; in vivo): weak anesthetic in which deep anesthesia is not obtained
- electro-encephalographic and convulsant activity ([2]; in vivo): abnormal electro-encephalographic and convulsant activity is observed

SMILES: COC(F)(C(F)(F)F)C(F)(F)F [CH3OCF(CF3)2]
- non-anesthetic up to (concentration) ([2]; U.S. Patent 3,683,092): > 8 % by volume in oxygen

SMILES: FC(F)OCC(F)(F)C(F)(F)F [CHF2OCH2CF2CF3]
- anesthetic properties ([2]; in vivo): non-anesthetic up to its lethal concentration
- convulsions [3]: produces convulsions

SMILES: [2H]C([2H])(F)OC(C(F)(F)F)C(F)(F)F [D2-sevoflurane, fluoro-dideutero-methyl-1,1,1,3,3,3,-hexafluoro-2-propyl ether]
- plasma fluoride liberated, % less than sevoflurane ([4]; isoniazid treated rats): 61%
- plasma fluoride, % less than enflurane anesthetized animals ([4]; isoniazid treated rats): 80%
- plasma fluoride liberated, % less than sevoflurane ([4]; phenobarbital treated animals): 66%
- plasma fluoride, % less than enflurane anesthetized animals ([4]; phenobarbital treated rats): 45%
- plasma fluoride liberated, % less than sevoflurane ([4]; untreated rats): 34%
- plasma fluoride, % less than enflurane anesthetized animals ([4]; untreated rats): 40%
- defluorination by rat liver microsomes, nmol F^- /mg protein/30 min ± S.E. ([5]; Animal Treatment: Isoniazid): 1.55 ± 0.39 nmol F^- /mg protein/30 min
- defluorination by rat liver microsomes, nmol F^- /mg protein/30 min ± S.E. ([5]; Animal Treatment: None): 0.62 ± 0.60 nmol F^- /mg protein/30 min
- defluorination by rat liver microsomes, nmol F^- /mg protein/30 min ± S.E. [5, 10]: 0.18 ± 0.03 nmol F^- /mg protein/30 min
- percent decline from sevoflurane values (degree of inhibited metabolism) ([5]; microsomes from isoniazid treated rats): 79%
- defluorinated slower than sevoflurane (% less) ([5]; microsomes from phenobarbital and isoniazid treated rats, over a wide range of anesthetic concentrations (figures 1 and 2)): 70-86%
- percent decline from sevoflurane values (degree of inhibited metabolism) ([5]; microsomes from phenobarbital treated rats): 84%
- percent decline from sevoflurane values (degree of inhibited metabolism) ([5]; microsomes from untreated rats): 68%
- production of volatile degradation by-products [6]: virtually insignificant levels
- degradation with soda lime, compared with sevoflurane ([7]; similar experiments to those run with sevoflurane): essentially the same
- time until rats became anesthetized after introduction of anesthetic [8]: 4 to 6 min

SMILES: [2H]C(Cl)(Br)C(F)(F)F (stereo not drawn) [Deuterated Halothane]
- effect of deuteration on metabolism ([1]; Sipes et al., J. Pharmacol. Exp. Ther. 214: 716-720, 1980): inhibits its metabolism to trifluoroacetic acid, but not its metabolism to release fluoride

SMILES: FCOC(C(F)(F)F)C(F)(F)F [Sevoflurane, fluoromethyl-1,1,1,3,3,3-hexafluoro-2-propyl ether]
- defluorination by rat liver microsomes, nmol F^- /mg protein/30 min ± S.E. [5, 10]: 1.18 ± 0.06 nmol F^- /mg protein/30 min
- time after circuit start at which degradation products were detected ([6]; exothermic temperature, soda lime core 44°C to 47°C, initial concentration 2.7%, flow 1.5 liters per minute): about 1.5 hours
- degradation products detected ([6]; soda lime canister in ice bath, core 22°C to 27°C, run up to eight hours): no degradation products were detected
- production of volatile degradation by-products [6]: virtually insignificant levels
- lower flammability limit in oxygen [9]: about 11.8 volume percent
- degradation products with soda lime ([7]; 22°C): some degradation products including "Compound A" were detected
- degradation products with soda lime ([7]; 45°C): substantial degradation products, including "Compound A", were produced
- time until rats became anesthetized after introduction of anesthetic [8]: 4 to 6 min

SMILES: FC(F)OC(F)(F)C(F)Cl (stereo not drawn) [enflurane]
- anesthetic concentration-dependent inhibition of metabolism ([5]; microsomes from isoniazid treated rats (figure 1)): anesthetic concentration-dependent inhibition of metabolism
- time until rats became anesthetized after introduction of anesthetic [8]: 4 to 6 min

SMILES: FC(F)C(F)(F)COC(F)(F)F [trifluoromethyl-2,2,3,3-tetrafluoropropyl ether]
- concentration causing violent convulsions and death (as low as) [3]: .5%

From patent EP0682649B1, “DEUTERATED SEVOFLURANE AS AN INHALATIONAL ANESTHETIC” (UNIVERSITY OF IOWA RESEARCH FOUNDATION, priority 1993, dated 1994)
